Where “and” joins values, the source holds several entries; their conditions need not be identical. Equal values may be shown once. Toxic doses and inconclusive results are not listed. Rule as the data show it: active = T/C of 150% or more; inactive = T/C below 125%.
Tested on: L1210 leukemia ip in BDF1 mice, survival T/C
Experiment: NCI In Vivo Anticancer Drug Screen. Data for tumor model L1210 Leukemia (intraperitoneal) in B6D2F1 (BDF1) mice
Details: endpoint: mean survival time, higher = longer survival
Method in brief: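 Ratio derived from survival: compound-dosed mice over vehicle-dosed mice, all bearing a transplantable tumor.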

[1] = dose: 12.5 mg/kg/injection, schedule: Q01DX009 (ip), vehicle: Klucel (hydroxypropylcellulose) (HPC)
[2] = dose: 25.0 mg/kg/injection, schedule: Q01DX009 (ip), vehicle: Klucel (hydroxypropylcellulose) (HPC)
[3] = dose: 50.0 mg/kg/injection, schedule: Q01DX009 (ip), vehicle: Klucel (hydroxypropylcellulose) (HPC)
[4] = dose: 100.0 mg/kg/injection, schedule: Q01DX009 (ip), vehicle: saline with Tween-80
[5] = dose: 200.0 mg/kg/injection, schedule: Q01DX009 (ip), vehicle: saline with Tween-80
[6] = dose: 400.0 mg/kg/injection, schedule: Q01DX009 (ip), vehicle: saline with Tween-80
[7] = dose: 100.0 mg/kg/injection, schedule: Q01DX009 (ip), vehicle: Klucel (hydroxypropylcellulose) (HPC)
[8] = dose: 100.0 mg/kg/injection, schedule: Q04DX003 (ip), vehicle: Klucel (hydroxypropylcellulose) (HPC)
[9] = dose: 200.0 mg/kg/injection, schedule: Q04DX003 (ip), vehicle: Klucel (hydroxypropylcellulose) (HPC)
[10] = dose: 100.0 mg/kg/injection, schedule: Q04DX003 (ip), vehicle: saline with Tween-80
[11] = dose: 200.0 mg/kg/injection, schedule: Q04DX003 (ip), vehicle: saline with Tween-80
[12] = dose: 400.0 mg/kg/injection, schedule: Q04DX003 (ip), vehicle: saline with Tween-80
[13] = dose: 12.5 mg/kg/injection, schedule: Q01DX009 (ip), vehicle: saline with Tween-80
[14] = dose: 25.0 mg/kg/injection, schedule: Q01DX009 (ip), vehicle: saline with Tween-80
[15] = dose: 100.0 mg/kg/injection, schedule: Q01DX001 (ip), vehicle: saline with Tween-80
[16] = dose: 200.0 mg/kg/injection, schedule: Q01DX001 (ip), vehicle: saline with Tween-80
[17] = dose: 400.0 mg/kg/injection, schedule: Q01DX001 (ip), vehicle: saline with Tween-80
[18] = dose: 200.0 mg/kg/injection, schedule: Q01DX009 (ip), vehicle: Klucel (hydroxypropylcellulose) (HPC)
[19] = dose: 400.0 mg/kg/injection, schedule: Q01DX009 (ip), vehicle: Klucel (hydroxypropylcellulose) (HPC)
[20] = dose: 400.0 mg/kg/injection, schedule: Q04DX003 (ip), vehicle: Klucel (hydroxypropylcellulose) (HPC)

Measured: T/C

Cc1c([N+](=O)[O-])cc(C(C)(C)C)c(OC(=O)Nc2cccc(Cl)c2)c1[N+](=O)[O-]
inactive: [1] 100 % of control | [2] 94 % of control | [3] 101 % of control

O=S(=O)(Nc1cc(Cl)ccc1Cl)c1ccc(Cl)cc1
inactive: [4] 92 % of control | [5] 102 % of control | [6] 92 % of control

CC(C)N(C(=O)Nc1cccc2ccccc12)c1ccccc1
inactive: dose: 100.0 mg/kg/injection, schedule: Q01DX009 (ip), vehicle: gum acacia 97 % of control | dose: 100.0 mg/kg/injection, schedule: Q04DX003 (ip), vehicle: gum acacia 110 % of control | dose: 200.0 mg/kg/injection, schedule: Q01DX009 (ip), vehicle: gum acacia 96 % of control | dose: 200.0 mg/kg/injection, schedule: Q04DX003 (ip), vehicle: gum acacia 102 % of control | dose: 400.0 mg/kg/injection, schedule: Q01DX009 (ip), vehicle: gum acacia 99 % of control | dose: 400.0 mg/kg/injection, schedule: Q04DX003 (ip), vehicle: gum acacia 104 % of control

NC(Cc1ccc(O)cc1)C(=O)N/N=C/c1ccc(N(CCCl)CCCl)cc1 (stereo not drawn)
inactive: [2] 101 % of control | [3] 113 % of control | [7] 106 % of control | [8] 107 % of control | [9] 102 % of control

O=C(O)C12CC3CC1C2C3
inactive: [10] 103 % of control | [11] 91 % of control | [12] 86 % of control

CC1(C)CN(Cc2ccccc2)C(C)(C)CN1N
inactive: dose: 6.25 mg/kg/injection, schedule: Q01DX009 (ip), vehicle: saline with Tween-80 96 % of control | [13] 100 % of control | [14] 102 % of control | dose: 25.0 mg/kg/injection, schedule: Q04DX003 (ip), vehicle: saline with Tween-80 105 % of control | dose: 50.0 mg/kg/injection, schedule: Q04DX003 (ip), vehicle: saline with Tween-80 102 % of control | [10] 113 % of control

O=C1CC(=Nc2ccc([N+](=O)[O-])cc2)NN1c1c(Cl)cc(Cl)cc1Cl
inactive: [4] 97 % of control | [5] 101 % of control | [6] 90 % of control

O=S(=O)(C1=Cc2cccc3cccc1c23)c1ccccc1
inactive: dose: 100.0 mg/kg/injection, schedule: Q01DX001 (ip), vehicle: acetone 101 % of control | dose: 100.0 mg/kg/injection, schedule: Q01DX009 (ip), vehicle: saline 94 % of control | dose: 100.0 mg/kg/injection, schedule: Q04DX003 (ip), vehicle: acetone 105 % of control | dose: 200.0 mg/kg/injection, schedule: Q01DX001 (ip), vehicle: acetone 92 % of control | dose: 200.0 mg/kg/injection, schedule: Q01DX009 (ip), vehicle: saline 96 % of control | dose: 200.0 mg/kg/injection, schedule: Q04DX003 (ip), vehicle: acetone 105 % of control | dose: 400.0 mg/kg/injection, schedule: Q01DX001 (ip), vehicle: acetone 93 % of control | dose: 400.0 mg/kg/injection, schedule: Q01DX009 (ip), vehicle: saline 103 % of control | dose: 400.0 mg/kg/injection, schedule: Q04DX003 (ip), vehicle: acetone 97 % of control

CC12CCC(CC1)C(O)C2 (stereo not drawn)
inactive: [15] 104 % of control | [10] 97 % of control | [16] 101 % of control | [11] 101 % of control | [17] 98 % of control | [12] 87 % of control

Nc1ncncc1-c1ccccc1[N+](=O)[O-]
inactive: [3] 98 % of control | [7] 98 % of control | [18] 102 % of control

C[C@]12CCC(=O)C=C1CC[C@H]1[C@@H]3CC[C@](O)(C(=O)CO)[C@@]3(C)C[C@H](O)[C@@]12F
inactive: dose: 50.0 mg/kg/injection, schedule: Q01DX001 (sc), vehicle: steriod suspending solution 103 % of control | dose: 100.0 mg/kg/injection, schedule: Q01DX001 (sc), vehicle: steriod suspending solution 100 % of control | dose: 200.0 mg/kg/injection, schedule: Q01DX001 (sc), vehicle: steriod suspending solution 105 % of control | dose: 400.0 mg/kg/injection, schedule: Q01DX001 (sc), vehicle: steriod suspending solution 105 % of control

O=C(Nc1ccc(Cl)cc1)OCC#CCOC(=O)Nc1ccc(Cl)cc1
inactive: dose: 75.0 mg/kg/injection, schedule: Q04DX003 (ip), vehicle: Klucel (hydroxypropylcellulose) (HPC) 93 % of control | [15] 90 % of control | [10] 88 % of control | dose: 150.0 mg/kg/injection, schedule: Q04DX003 (ip), vehicle: Klucel (hydroxypropylcellulose) (HPC) 93 % of control | [16] 88 % of control | dose: 300.0 mg/kg/injection, schedule: Q04DX003 (ip), vehicle: Klucel (hydroxypropylcellulose) (HPC) 98 % of control | [17] 90 % of control | [12] 90 % of control

Cc1ccc(Cl)cc1NC(=O)NCCCl
inactive: [8] 113 % of control | [9] 93 % of control

CC1(C)C2CC3C(=CCCC3(Cl)C#N)C1C2 (stereo not drawn)
inactive: [7] 98 % of control | [8] 106 % of control | [18] 102 % of control | [9] 101 % of control | [19] 93 % of control | [20] 97 % of control

COC(=O)CCC(=O)NCCc1cccc(OC)c1
inactive: [8] 97 % of control | [9] 98 % of control | [20] 92 % of control

CCOC(=O)C(C)C(OCC)OCC (stereo not drawn)
inactive: [7] 96 % of control | [8] 90 % of control | [18] 104 % of control | [9] 103 % of control | [19] 89 % of control | [20] 107 % of control

O=C(N/N=C/c1c(Cl)cccc1Cl)C1CCCO1 (stereo not drawn)
inactive: dose: 6.25 mg/kg/injection, schedule: Q01DX009 (ip), vehicle: Klucel (hydroxypropylcellulose) (HPC) 96 % of control | [1] 96 % of control | [2] 95 % of control and 91 % of control

COC1C(c2ccccc2)NC(=O)C(Br)(C#N)C1c1ccccc1 (stereo not drawn)
inactive: [13] 86 % of control | [14] 86 % of control | dose: 50.0 mg/kg/injection, schedule: Q01DX009 (ip), vehicle: saline with Tween-80 86 % of control

c1cc2cccc3c2c(c1)c1sc2c4cccc5cccc(c54)c2c31
inactive: [4] 100 % of control | [10] 101 % of control | [5] 92 % of control | [11] 90 % of control | [6] 89 % of control | [12] 94 % of control

Source: PubChem BioAssay AID248 (DTP/NCI, 2004)
